Holding throughout (type): biochemical
In one test the target is T1, JAK3 (Homo sapiens, UniProt P52333).
T1 sequence (P52333 1-1124): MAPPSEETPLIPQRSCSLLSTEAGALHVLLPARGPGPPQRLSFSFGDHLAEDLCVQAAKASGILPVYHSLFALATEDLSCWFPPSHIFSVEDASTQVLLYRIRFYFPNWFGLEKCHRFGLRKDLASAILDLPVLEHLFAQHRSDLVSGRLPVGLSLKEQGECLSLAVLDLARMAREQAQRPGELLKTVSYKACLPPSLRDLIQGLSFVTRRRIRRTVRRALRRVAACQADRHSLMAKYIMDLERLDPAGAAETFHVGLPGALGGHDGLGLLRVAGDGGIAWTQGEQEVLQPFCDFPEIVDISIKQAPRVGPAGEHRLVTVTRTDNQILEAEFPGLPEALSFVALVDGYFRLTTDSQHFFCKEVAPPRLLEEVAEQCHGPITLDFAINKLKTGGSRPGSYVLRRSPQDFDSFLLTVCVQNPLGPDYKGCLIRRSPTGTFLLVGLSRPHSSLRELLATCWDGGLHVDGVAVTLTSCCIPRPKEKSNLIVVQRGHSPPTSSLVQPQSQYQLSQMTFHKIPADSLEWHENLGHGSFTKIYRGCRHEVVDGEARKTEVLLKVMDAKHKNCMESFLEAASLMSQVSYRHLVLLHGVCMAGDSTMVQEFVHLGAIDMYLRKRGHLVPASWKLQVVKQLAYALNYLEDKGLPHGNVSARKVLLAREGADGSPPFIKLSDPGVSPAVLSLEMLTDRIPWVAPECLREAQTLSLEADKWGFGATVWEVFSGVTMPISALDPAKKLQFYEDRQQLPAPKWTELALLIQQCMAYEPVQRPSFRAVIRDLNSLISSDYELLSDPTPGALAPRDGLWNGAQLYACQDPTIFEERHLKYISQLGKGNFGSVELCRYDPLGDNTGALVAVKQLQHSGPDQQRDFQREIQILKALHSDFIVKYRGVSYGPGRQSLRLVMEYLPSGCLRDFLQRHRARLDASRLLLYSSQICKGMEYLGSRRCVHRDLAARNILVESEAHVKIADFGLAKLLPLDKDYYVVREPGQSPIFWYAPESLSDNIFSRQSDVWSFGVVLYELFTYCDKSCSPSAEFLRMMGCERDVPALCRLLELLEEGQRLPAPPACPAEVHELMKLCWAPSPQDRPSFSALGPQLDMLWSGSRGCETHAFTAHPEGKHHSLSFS
In words: Inhibition of a panel of kinases, in vitro HotSpot kinase assay: JAK3. Particulars: D-compounds panel data; 1 μM ATP; read-out: IC50 JAK3.

In the next test the target is LCK (Homo sapiens, UniProt P06239). In words: Inhibition of a panel of kinases, in vitro HotSpot kinase assay: LCK. As to conditions: D-compounds panel data; 1 μM ATP; read-out: IC50 LCK.
LCK, sequence (P06239 whole entry): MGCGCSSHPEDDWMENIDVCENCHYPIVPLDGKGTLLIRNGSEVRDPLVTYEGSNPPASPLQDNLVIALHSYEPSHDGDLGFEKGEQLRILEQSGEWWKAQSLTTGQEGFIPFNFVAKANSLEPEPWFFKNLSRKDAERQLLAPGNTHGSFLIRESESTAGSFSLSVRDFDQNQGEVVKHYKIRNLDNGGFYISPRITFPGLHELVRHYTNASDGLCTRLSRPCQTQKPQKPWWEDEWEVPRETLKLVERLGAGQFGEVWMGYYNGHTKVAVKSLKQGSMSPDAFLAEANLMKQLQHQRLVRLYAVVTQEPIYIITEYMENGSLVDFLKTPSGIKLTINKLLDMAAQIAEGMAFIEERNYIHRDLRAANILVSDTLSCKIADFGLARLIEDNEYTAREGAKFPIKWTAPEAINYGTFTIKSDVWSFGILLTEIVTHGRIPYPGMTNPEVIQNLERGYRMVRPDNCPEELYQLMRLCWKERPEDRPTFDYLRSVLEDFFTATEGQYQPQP
Another test addresses T2, ITK (Homo sapiens, UniProt Q08881).
T2 sequence (Q08881 1-620): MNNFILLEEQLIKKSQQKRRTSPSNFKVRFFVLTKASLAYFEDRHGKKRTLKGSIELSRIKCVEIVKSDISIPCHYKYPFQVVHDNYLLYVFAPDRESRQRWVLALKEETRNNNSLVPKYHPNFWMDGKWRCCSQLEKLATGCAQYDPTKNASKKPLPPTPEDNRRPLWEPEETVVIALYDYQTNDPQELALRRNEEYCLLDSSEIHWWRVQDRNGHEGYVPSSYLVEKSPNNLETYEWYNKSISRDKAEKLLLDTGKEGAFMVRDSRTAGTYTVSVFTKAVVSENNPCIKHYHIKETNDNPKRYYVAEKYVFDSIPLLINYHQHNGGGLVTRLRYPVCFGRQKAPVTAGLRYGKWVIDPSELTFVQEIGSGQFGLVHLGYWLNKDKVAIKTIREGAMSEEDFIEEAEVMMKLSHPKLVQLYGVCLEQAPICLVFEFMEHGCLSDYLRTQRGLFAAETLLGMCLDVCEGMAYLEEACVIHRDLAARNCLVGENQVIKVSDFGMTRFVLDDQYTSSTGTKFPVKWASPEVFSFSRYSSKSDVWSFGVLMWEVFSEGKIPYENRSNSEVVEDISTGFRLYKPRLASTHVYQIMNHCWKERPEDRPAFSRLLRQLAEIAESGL
In words: Inhibition of a panel of kinases, in vitro HotSpot kinase assay: ITK. As to conditions: D-compounds panel data; 1 μM ATP. As to the method:
(§1) The degree of inhibition of a panel of kinases is determined using the in vitro HotSpot kinase assay (purified enzymes, ^33P-ATP, an appropriate substrate and 1 μM ATP).

The target in a further test is EGFR (Homo sapiens, UniProt P00533). In words: Inhibition of a panel of kinases, in vitro HotSpot kinase assay: EGFR. As to conditions: D-compounds panel data; 1 μM ATP. As to the method:
as §1

In a further test the target is SRC (Homo sapiens, UniProt P12931). In words: Inhibition of a panel of kinases, in vitro HotSpot kinase assay: SRC. As to conditions: D-compounds panel data; 1 μM ATP. Here is the method: as §1
SRC, sequence (P12931 whole entry): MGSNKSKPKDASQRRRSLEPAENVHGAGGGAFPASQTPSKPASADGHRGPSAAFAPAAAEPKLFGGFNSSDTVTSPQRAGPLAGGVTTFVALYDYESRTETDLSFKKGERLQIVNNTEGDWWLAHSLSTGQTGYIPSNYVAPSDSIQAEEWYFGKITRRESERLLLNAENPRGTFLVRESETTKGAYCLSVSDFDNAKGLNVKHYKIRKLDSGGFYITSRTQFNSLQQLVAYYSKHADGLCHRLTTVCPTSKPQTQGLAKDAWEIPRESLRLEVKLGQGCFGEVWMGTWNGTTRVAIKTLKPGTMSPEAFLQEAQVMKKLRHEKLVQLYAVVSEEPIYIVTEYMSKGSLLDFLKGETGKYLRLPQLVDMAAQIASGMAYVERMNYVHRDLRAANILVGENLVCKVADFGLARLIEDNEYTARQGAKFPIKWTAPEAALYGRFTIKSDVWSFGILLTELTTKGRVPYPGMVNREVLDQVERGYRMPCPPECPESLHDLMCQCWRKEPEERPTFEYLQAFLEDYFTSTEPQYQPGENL
In another test the target is T3, TEC (Homo sapiens, UniProt P42680).
T3 sequence (P42680 1-631): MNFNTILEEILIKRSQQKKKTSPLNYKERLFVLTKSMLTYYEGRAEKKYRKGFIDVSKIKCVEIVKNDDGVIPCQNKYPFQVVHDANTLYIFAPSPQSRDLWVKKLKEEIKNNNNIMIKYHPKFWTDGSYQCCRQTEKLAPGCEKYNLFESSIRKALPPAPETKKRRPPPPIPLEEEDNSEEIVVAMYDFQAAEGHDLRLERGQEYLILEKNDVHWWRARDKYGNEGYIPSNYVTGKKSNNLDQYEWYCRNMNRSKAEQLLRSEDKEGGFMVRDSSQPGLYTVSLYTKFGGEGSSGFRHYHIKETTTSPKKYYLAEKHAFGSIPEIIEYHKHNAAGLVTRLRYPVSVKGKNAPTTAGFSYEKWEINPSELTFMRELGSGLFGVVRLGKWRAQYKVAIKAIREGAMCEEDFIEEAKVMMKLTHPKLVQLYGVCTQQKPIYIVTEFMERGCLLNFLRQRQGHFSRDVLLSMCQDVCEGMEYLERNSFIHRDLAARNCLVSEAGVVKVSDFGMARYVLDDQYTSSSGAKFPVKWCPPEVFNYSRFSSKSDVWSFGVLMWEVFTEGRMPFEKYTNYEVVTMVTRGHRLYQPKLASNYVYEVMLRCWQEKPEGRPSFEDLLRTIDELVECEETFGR
In words: Inhibition of a panel of kinases, in vitro HotSpot kinase assay: TEC. Particulars: D-compounds panel data; 1 μM ATP. Here is the method:
as §1

pIC50: −log10 of the molar value. Bounds are passed on as bounds.

EGFR, sequence (P00533 25-1210): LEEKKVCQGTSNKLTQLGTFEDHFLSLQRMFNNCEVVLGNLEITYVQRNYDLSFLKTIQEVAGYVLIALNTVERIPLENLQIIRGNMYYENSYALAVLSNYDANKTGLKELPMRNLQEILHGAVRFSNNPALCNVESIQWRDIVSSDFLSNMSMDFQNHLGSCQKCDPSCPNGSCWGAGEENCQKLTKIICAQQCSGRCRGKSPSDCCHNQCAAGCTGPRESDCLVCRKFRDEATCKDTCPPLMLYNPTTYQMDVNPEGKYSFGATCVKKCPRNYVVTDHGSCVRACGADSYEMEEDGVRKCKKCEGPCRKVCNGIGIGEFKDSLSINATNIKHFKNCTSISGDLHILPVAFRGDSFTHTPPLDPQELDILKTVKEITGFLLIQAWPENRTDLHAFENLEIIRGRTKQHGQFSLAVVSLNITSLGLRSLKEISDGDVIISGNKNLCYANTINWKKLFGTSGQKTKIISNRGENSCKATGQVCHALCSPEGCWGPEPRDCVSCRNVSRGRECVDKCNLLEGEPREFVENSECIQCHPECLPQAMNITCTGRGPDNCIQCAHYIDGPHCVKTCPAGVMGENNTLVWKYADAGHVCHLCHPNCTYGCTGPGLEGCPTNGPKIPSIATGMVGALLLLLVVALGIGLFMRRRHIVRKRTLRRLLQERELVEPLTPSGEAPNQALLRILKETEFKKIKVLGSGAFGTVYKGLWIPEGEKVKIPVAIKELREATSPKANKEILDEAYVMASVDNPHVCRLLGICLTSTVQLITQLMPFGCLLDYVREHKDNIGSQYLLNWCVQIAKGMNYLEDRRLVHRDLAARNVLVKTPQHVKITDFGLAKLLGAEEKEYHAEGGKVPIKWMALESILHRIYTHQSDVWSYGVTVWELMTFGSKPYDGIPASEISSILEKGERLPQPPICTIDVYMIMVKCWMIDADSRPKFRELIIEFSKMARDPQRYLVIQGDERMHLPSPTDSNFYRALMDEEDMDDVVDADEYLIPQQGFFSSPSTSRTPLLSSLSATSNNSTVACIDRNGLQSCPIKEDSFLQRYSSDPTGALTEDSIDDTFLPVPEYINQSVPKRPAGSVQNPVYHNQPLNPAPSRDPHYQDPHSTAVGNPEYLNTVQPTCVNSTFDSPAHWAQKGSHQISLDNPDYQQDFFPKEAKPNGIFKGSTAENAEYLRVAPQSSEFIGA

Take `CN1CCN(c2ccc(Nc3nc(N4CCC[C@@H](n5ccc6cc(C7CC7)ccc6c5=O)C4)cnc3C(N)=O)nc2)CC1` [Example D-179, 5-[(3R)-3-(6-cyclopropyl-1-oxo-1,2-dihydroisoquinolin-2-yl)piperidin-1-yl]-3-{[5-(4-methylpiperazin-1-yl)pyridin-2-yl]amino}pyrazine-2-carboxamide]: the pIC50 at JAK3 was below 5.00; at LCK it was below 5.00; against ITK it was 5.00 to 6.00; against EGFR it was below 5.00; against SRC, below 5.00; on TEC, 5.00 to 6.00.

As for `C[C@@H]1[C@H](NC(=O)c2ccc(N(C)C)cc2)CCCN1c1cnc(C(N)=O)c(Nc2ccc(C3(C)CCN(C4CCCC4)CC3)cc2)n1` [Example D-183, 3-{[4-(1-cyclopentyl-4-methylpiperidin-4-yl)phenyl]amino}-5-[(2R,3R)-3-[4-(dimethylamino)benzamido]-2-methylpiperidin-1-yl]pyrazine-2-carboxamide], the pIC50 at JAK3 is 6.00 to 7.00; at LCK, 7.00 to 8.00; against ITK, 7.00 to 8.00; at EGFR it was 6.00 to 7.00; at SRC, at least 8.00; at TEC, 7.00 to 8.00.

Consider `Cn1cc(Nc2nc(N3CCC[C@@H](NC(=O)c4ccc(C5CC5)cc4)C3)cnc2C(N)=O)cn1` [Example D-191, 5-[(3R)-3-(4-cyclopropylbenzamido)piperidin-1-yl]-3-[(1-methyl-1H-pyrazol-4-yl)amino]pyrazine-2-carboxamide], for which the negative logarithm of the IC50 (pIC50) was 5.00 to 6.00 on JAK3; 6.00 to 7.00 at LCK; 5.00 to 6.00 against ITK; below 5.00 against EGFR; 6.00 to 7.00 against SRC; 6.00 to 7.00 against TEC.

As to `Cc1cc(Nc2cc(N3CCC[C@@H](NC(=O)N(C)C)[C@H]3C)cnc2C(N)=O)sn1` [Example D-175, 5-[(2R,3R)-3-[(dimethylcarbamoyl)amino]-2-methylpiperidin-1-yl]-3-[(3-methyl-1,2-thiazol-5-yl)amino]pyridine-2-carboxamide], the pIC50 was 5.00 to 6.00 on JAK3; 5.00 to 6.00 on LCK; 5.00 to 6.00 at ITK; 5.00 to 6.00 on EGFR; 6.00 to 7.00 on SRC; 5.00 to 6.00 on TEC.

On to `C[C@@H]1[C@H](NC(=O)c2ccc(SC(F)(F)F)cc2)CCCN1c1cnc(C(N)=O)c(Nc2cnn(C)c2)n1` [Example D-241, 3-[(1-methyl-1H-pyrazol-4-yl)amino]-5-[(2R,3R)-2-methyl-3-{4-[(trifluoromethyl)sulfanyl]benzamido}piperidin-1-yl]pyrazine-2-carboxamide], for which the pIC50 at JAK3 is 5.00 to 6.00; at LCK it was 6.00 to 7.00; on ITK, 5.00 to 6.00; against EGFR, 6.00 to 7.00; against SRC, 7.00 to 8.00; against TEC it was 7.00 to 8.00.

On to `C[C@@H]1[C@H](NC(=O)c2ccc(S(F)(F)(F)(F)F)cc2)CCCN1c1cnc(C(N)=O)c(Nc2cnn(C)c2)n1` [Example D-230, 3-[(1-methyl-1H-pyrazol-4-yl)amino]-5-[(2R,3R)-2-methyl-3-[4-(pentafluoro-λ^6-sulfanyl)benzamido]piperidin-1-yl]pyrazine-2-carboxamide], for which the pIC50 on JAK3 is below 5.00; at LCK, 6.00 to 7.00; against ITK, 5.00 to 6.00; against EGFR, 5.00 to 6.00; on SRC, 6.00 to 7.00; at TEC it was 7.00 to 8.00.

In the case of `C[C@@H]1[C@H](NC(=O)c2ccc(SC(F)(F)F)cc2)CCCN1c1cnc(C(N)=O)c(Nc2ccc(N3CCN(C)CC3)cc2)n1` [Example D-233, 5-[(2R,3R)-2-methyl-3-{4-[(trifluoromethyl)sulfanyl]benzamido}piperidin-1-yl]-3-{[4-(4-methylpiperazin-1-yl)phenyl]amino}pyrazine-2-carboxamide], the negative logarithm of the IC50 (pIC50) is 5.00 to 6.00 at JAK3; 6.00 to 7.00 on LCK; 6.00 to 7.00 against ITK; 6.00 to 7.00 on EGFR; 7.00 to 8.00 against SRC; 7.00 to 8.00 against TEC.

For `C[C@@H]1[C@H](NC(=O)c2ccc(C3CC3)cc2F)CCCN1c1cnc(C(N)=O)c(Nc2cc(CN3CCOCC3)ns2)n1` [Example D-173, 5-[(2R,3R)-3-(4-cyclopropyl-2-fluorobenzamido)-2-methylpiperidin-1-yl]-3-{[3-(morpholin-4-ylmethyl)-1,2-thiazol-5-yl]amino}pyrazine-2-carboxamide], the pIC50 at JAK3 was 6.00 to 7.00; at LCK, 7.00 to 8.00; at ITK, 6.00 to 7.00; on EGFR, 6.00 to 7.00; against SRC, 7.00 to 8.00; against TEC it was 7.00 to 8.00.

Consider `Cn1cc(Nc2nc(N3CCC(F)(F)[C@H](NC(=O)c4ccc(C5CC5)cc4)C3)cnc2C(N)=O)cn1` [Example D-192, 5-[(3R)-3-(4-cyclopropylbenzamido)-4,4-difluoropiperidin-1-yl]-3-[(1-methyl-1H-pyrazol-4-yl)amino]pyrazine-2-carboxamide], for which the negative-log IC50 (pIC50) is 5.00 to 6.00 on JAK3; below 5.00 at LCK; 5.00 to 6.00 against ITK; below 5.00 against EGFR; 5.00 to 6.00 against SRC; 5.00 to 6.00 at TEC.

For `C[C@@H]1[C@H](NC(=O)c2ccc3scnc3c2)CCCN1c1cnc(C(N)=O)c(Nc2cnn(C)c2)n1` [Example D-237, N-[(2R,3R)-1-{5-carbamoyl-6-[(1-methyl-1H-pyrazol-4-yl)amino]pyrazin-2-yl}-2-methylpiperidin-3-yl]-1,3-benzothiazole-5-carboxamide], the pIC50 at JAK3 was 6.00 to 7.00; at LCK, 7.00 to 8.00; on ITK it was 6.00 to 7.00; on EGFR it was 5.00 to 6.00; against SRC, 7.00 to 8.00; on TEC, at least 8.00.

For the origin of these results see patent US20210070748A1, “INHIBITORS OF BRUTONS TYROSINE KINASE” (Pharmacyclics LLC, priority 2015, published 2021).
